This test concerns head, forehead and neck. As to the kind of experiment: Half-head wash with ethyl nicotinate shampoo against placebo shampoo (erythema meter, Cyclops pyrometer, sensations). The format is in vivo, human. As to the method:
EXPERIMENTS WITH ETHYL NICOTINATE ESTER IN SHAMPOO Five subjects washed one side of the head, forehead and neck with a shampoo the same as in Example 5 but containing a varying level of ethyl nicotinate for a period ranging from one to five minutes, whilst the other side was washed with a placebo shampoo of corresponding composition. The changes occurring on the various symmetrical sites around the head were assessed with the erythema meter and a "Cyclops" pyrometer in sequence. The readings were continued for between 45 minutes and one hour.

The structures appear in SMILES notation.

In the case of `CCOC(=O)c1cccnc1` [EtNic, ethyl nicotinate], the temperature result (active sites against placebo sites, Cyclops pyrometer, wash of one to five minutes) is on record as “either rose or did not fall so low as the placebo sites”. For the same compound, the redness entry (active sites against placebo sites, erythema meter, wash of one to five minutes) was “increased the redness”. For the same compound, the “longer term sensations of a pleasant nature, duration after treatment” value (crown of the head) is given as “up to two”.

These data come from patent EP0489581A2, “Cosmetic composition” (UNILEVER PLC, priority 1990, dated 1992).
